Results taken from ChEMBL document CHEMBL3727350, “Agents and methods for treating ischemic and other diseases” (2014).
Activity calls are given as the source filed them. The calls are words filed in the database; no cut-off is given here.

Assays:
[1] = molecular target: Protein XNDC1N (Homo sapiens) (UniProt Q6ZNB5); assay: Inhibition of TRPC2 (unknown origin) expressed in HEK293 cells assessed as effect on agonist-induced Ca2+ changes; type: functional, cell-based
[2] = molecular target: Transient receptor potential cation channel subfamily M member 6 (Homo sapiens) (UniProt Q9BX84); assay: Inhibition of TRPM6 (unknown origin) expressed in HEK293 cells assessed as effect on agonist-induced Ca2+ changes; type: functional, cell-based
[3] = molecular target: Transient receptor potential cation channel subfamily M member 7 (Mus musculus) (UniProt Q923J1); assay: Inhibition of Tet-induced Flag-tagged mouse TRPM7 expressed in HEK293 cells assessed as reduction in channel currents at 2 mM using compound applied extracellularly by whole cell patch clamp assay; type: cell-based
Sequence of Transient receptor potential cation channel subfamily M member 7 (Mus musculus) (Q923J1 whole entry): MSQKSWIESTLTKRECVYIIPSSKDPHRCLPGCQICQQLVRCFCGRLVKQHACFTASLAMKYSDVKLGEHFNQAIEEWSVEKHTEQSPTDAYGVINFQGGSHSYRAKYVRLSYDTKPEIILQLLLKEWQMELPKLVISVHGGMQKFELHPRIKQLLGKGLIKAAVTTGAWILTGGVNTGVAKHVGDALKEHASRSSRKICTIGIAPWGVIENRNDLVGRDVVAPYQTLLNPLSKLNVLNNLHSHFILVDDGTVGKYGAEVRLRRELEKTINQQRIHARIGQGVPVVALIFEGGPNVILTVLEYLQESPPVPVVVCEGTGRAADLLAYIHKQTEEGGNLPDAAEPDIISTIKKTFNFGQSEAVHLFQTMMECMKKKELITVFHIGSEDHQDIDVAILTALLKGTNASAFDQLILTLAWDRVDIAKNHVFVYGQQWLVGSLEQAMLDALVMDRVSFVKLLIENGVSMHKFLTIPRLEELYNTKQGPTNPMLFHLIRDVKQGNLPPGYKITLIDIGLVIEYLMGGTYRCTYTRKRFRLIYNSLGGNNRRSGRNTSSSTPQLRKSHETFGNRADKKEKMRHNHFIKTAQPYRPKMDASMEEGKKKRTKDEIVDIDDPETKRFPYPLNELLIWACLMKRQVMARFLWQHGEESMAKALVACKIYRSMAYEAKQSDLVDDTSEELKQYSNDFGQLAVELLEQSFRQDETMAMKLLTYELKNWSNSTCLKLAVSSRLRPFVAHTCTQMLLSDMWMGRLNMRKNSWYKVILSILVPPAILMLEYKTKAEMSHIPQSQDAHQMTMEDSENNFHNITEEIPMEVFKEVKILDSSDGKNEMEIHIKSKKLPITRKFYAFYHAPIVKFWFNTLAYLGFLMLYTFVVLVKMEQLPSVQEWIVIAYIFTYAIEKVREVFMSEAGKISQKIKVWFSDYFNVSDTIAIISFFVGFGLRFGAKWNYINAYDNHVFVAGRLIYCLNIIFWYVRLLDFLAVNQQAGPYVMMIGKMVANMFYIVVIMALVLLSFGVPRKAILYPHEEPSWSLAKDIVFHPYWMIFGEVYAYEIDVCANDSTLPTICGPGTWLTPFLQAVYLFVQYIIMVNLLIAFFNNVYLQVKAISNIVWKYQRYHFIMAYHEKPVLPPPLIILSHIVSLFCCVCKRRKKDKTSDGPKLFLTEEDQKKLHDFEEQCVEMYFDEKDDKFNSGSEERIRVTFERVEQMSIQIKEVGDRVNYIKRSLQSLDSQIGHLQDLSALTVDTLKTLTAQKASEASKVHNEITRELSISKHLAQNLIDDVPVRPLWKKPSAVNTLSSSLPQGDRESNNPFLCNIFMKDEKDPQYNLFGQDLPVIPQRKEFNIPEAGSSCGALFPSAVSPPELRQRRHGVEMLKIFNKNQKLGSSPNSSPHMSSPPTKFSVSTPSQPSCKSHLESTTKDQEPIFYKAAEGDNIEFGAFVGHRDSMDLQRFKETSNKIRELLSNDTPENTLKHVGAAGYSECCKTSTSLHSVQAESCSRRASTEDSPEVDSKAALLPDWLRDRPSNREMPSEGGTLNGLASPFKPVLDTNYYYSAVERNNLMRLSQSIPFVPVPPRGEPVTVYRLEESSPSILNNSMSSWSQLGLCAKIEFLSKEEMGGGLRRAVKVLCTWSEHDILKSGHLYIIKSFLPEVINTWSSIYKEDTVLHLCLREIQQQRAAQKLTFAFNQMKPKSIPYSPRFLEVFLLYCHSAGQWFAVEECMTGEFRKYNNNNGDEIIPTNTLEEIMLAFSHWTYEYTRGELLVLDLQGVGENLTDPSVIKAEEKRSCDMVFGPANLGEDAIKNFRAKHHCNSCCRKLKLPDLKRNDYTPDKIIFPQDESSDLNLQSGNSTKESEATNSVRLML

[4] = molecular target: Transient receptor potential cation channel subfamily M member 7 (Rattus norvegicus) (UniProt Q925B3); assay: Inhibition of TRPM7 in rat H9C2 cells exposed to 6 hrs oxygen glucose deprivation condition followed by 2 hrs recovery assessed as reduction in TRPM7-mediated anoxic cell death at 0.05 to 5 uM by propidium iodide uptake assay; type: cell-based
Sequence of Transient receptor potential cation channel subfamily M member 7 (Rattus norvegicus) (Q925B3 whole entry): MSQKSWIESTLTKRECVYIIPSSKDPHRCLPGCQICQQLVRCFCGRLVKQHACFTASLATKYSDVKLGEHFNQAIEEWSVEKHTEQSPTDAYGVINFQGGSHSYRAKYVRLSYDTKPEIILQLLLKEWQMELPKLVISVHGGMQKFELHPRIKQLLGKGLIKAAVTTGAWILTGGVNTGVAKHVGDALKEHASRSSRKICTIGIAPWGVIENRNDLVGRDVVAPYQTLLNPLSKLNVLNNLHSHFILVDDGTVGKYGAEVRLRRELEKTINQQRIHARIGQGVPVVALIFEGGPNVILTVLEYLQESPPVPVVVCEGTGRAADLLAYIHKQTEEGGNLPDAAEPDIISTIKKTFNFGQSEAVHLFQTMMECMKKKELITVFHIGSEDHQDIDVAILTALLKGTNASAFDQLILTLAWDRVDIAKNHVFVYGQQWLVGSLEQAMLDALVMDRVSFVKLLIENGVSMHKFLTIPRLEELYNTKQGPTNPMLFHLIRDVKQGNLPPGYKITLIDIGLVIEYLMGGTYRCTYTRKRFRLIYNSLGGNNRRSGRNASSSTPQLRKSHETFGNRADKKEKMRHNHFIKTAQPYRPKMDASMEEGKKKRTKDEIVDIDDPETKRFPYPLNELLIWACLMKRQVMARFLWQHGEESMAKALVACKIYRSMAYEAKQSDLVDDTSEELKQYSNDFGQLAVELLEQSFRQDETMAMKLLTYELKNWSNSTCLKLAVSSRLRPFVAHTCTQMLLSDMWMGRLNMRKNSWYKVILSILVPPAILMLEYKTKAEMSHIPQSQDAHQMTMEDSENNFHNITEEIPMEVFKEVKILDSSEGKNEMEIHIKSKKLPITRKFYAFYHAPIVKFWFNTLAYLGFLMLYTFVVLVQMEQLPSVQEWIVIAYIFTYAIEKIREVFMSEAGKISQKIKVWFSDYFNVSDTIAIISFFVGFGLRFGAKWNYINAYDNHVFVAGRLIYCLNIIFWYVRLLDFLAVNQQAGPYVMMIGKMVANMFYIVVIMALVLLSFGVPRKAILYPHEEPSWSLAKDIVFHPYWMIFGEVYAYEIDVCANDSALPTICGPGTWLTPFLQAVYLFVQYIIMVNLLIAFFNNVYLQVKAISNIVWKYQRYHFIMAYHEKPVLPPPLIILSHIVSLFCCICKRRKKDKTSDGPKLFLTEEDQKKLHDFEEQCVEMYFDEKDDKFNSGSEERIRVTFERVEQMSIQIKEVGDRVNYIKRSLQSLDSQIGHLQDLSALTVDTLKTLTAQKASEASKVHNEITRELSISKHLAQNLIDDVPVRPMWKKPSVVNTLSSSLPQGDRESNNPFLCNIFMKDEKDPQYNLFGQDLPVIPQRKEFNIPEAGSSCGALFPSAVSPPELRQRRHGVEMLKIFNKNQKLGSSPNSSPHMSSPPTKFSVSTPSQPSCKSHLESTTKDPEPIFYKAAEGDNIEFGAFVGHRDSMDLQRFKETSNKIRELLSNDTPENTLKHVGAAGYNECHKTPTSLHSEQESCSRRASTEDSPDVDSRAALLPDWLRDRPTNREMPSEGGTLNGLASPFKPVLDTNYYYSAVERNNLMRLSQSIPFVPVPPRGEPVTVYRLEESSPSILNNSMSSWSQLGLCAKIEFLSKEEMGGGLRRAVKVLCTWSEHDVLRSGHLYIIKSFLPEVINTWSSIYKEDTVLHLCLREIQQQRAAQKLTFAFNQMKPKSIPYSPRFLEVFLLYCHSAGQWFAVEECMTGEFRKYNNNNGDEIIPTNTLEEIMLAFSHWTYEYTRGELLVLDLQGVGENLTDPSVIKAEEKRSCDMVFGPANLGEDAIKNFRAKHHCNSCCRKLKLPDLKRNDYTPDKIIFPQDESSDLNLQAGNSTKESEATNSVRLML

[5] = molecular target: Transient receptor potential cation channel subfamily M member 7 (Mus musculus) (UniProt Q923J1); assay: Inhibition of Tet-induced Flag-tagged mouse TRPM7 expressed in HEK293 cells assessed as reduction in channel currents at 2 mM using compound applied intracellularly by whole cell patch clamp assay; type: cell-based
[6] = molecular target: Transient receptor potential cation channel subfamily M member 7 (Mus musculus) (UniProt Q923J1); assay: Inhibition of TRPM7 in mouse mouse primary cortical neurons exposed to 1 hrs oxygen glucose deprivation condition assessed as reduction in TRPM7-mediated anoxic cell death at 1.25 to 10 uM measured after 20 hrs by propidium iodide uptake assay; type: cell-based; conditions: Cerebral cortex neuron
Mus musculus [7] = organism: Mus musculus; assay: Inhibition of potassium channel in mouse cortical neurons assessed as reduction in potassium currents at -10mV membrane potential
Rattus norvegicus [8] = organism: Rattus norvegicus; assay: Reduction in retinal cell death in rat model of acute glaucoma assessed as reduction in TUNEL positive cells after exposure to 1 hr high IOP at 1 uM; type: functional, organism-based
[9] = molecular target: Transient receptor potential cation channel subfamily M member 2 (Homo sapiens) (UniProt O94759); assay: Inhibition of TRPM2 (unknown origin) expressed in HEK293 cells assessed as effect on agonist-induced Ca2+ changes; type: functional, cell-based
Rattus norvegicus [10] = assay: Analgesic activity in iv dosed rat model of formalin-induced inflammatory pain assessed reduction in formalin-induced phase-1 pain flinches; type: functional, organism-based
[11] = molecular target: Transient receptor potential cation channel subfamily M member 7 (Rattus norvegicus) (UniProt Q925B3); assay: Inhibition of TRPM7 in rat H9C2 cells assessed as reduction in channel currents at 0.3 to 30 uM by whole cell patch clamp assay; type: cell-based
[12] = molecular target: Glutamate NMDA receptor (Mus musculus) (UniProt P35436+Q91ZU9+Q03391+P35438+Q01097+Q01098+A2AIR5); assay: Inhibition of NMDA receptor in mouse cortical neurons assessed as effect on NMDA currents; type: protein-complex assay
[13] = Inhibition of cell proliferation of human WERI cells at 10 uM incubated for 48 to 96 hrs; type: functional
[14] = molecular target: Transient receptor potential cation channel subfamily M member 7 (Mus musculus) (UniProt Q923J1); assay: Inhibition of Tet-induced Flag-tagged mouse TRPM7 expressed in HEK293 cells assessed as reduction in channel currents at 0.3 to 30 uM by whole cell patch clamp assay; type: cell-based
Mus musculus [15] = assay: Reduction in infarct volume in mouse model of permanent LAD coronary artery ligation at 10 to 335 ug/kg, iv administered as single dose within 15 mins of LAD occlusion by TTC staining based method; type: functional, organism-based
[16] = molecular target: Glutamate receptor ionotropic, AMPA (Mus musculus) (UniProt P23819+P23818+Q9Z2W8+Q9Z2W9); assay: Inhibition of AMPA receptor in mouse cortical neurons assessed as effect on AMPA currents; type: protein-complex assay
Mus musculus [17] = assay: Toxicity in mouse up to 150 uM, iv; type: organism-based; conditions: in vivo
[18] = molecular target: Transient receptor potential cation channel subfamily M member 7 (Rattus norvegicus) (UniProt Q925B3); assay: Inhibition of TRPM7 in cultured rat retinal ganglion cells exposed to oxygen glucose deprivation condition for 3 hrs assessed as protection against TRPM7-mediated cell death at by propidium iodide uptake assay; design: scale not given: the % may be the effect or the level left
[19] = molecular target: Transient receptor potential cation channel subfamily M member 7 (Mus musculus) (UniProt Q923J1); assay: Inhibition of TRPM7 in mouse AML12 cells assessed as protection against oxygen glucose deprivation-induced cell death at 0.5 to 5 uM; type: cell-based
[20] = molecular target: Transient receptor potential cation channel subfamily M member 7 (Mus musculus) (UniProt Q923J1); assay: Inhibition of TRPM7 in mouse primary neuronal cells exposed to oxygen glucose deprivation condition for 1 to 3 hrs assessed as reduction in TRPM7-mediated anoxic cell death dosed after oxygen glucose deprivation condition by propidium iodide uptake assay; conditions: Primary neuron
[21] = molecular target: Transient receptor potential cation channel subfamily M member 7 (Rattus norvegicus) (UniProt Q925B3); assay: Inhibition of TRPM7 in Sprague-Dawley rat retinal explants subjected to 1 hr oxygen-glucose deprivation assessed as reduction in retinal ischemia at 5 uM
[22] = molecular target: Transient receptor potential cation channel subfamily M member 7 (Rattus norvegicus) (UniProt Q925B3); assay: Inhibition of TRPM7 in rat H9c2 cells assessed as protection against oxygen glucose deprivation-induced cell death at 0.05 to 5 uM in presence of 1 uM nifedipine; type: cell-based
[23] = molecular target: Transient receptor potential cation channel subfamily M member 7 (Rattus norvegicus) (UniProt Q925B3); assay: Inhibition of TRPM7 in rat H9c2 cells assessed as protection against oxygen glucose deprivation-induced cell death at 0.05 to 5 uM; type: cell-based
[24] = molecular target: Transient receptor potential cation channel subfamily M member 7 (Rattus norvegicus) (UniProt Q925B3); assay: Inhibition of TRPM7 in rat retinal explants exposed to oxygen glucose deprivation condition for 1 hr assessed as protection against TRPM7-mediated cell death at by propidium iodide uptake assay
[25] = molecular target: Transient receptor potential cation channel subfamily M member 7 (Mus musculus) (UniProt Q923J1); assay: Inhibition of Tet-induced Flag-tagged mouse TRPM7 expressed in HEK293 cells assessed as inhibition of channel-mediated cell death in presence of Mg2+ incubated for 24 to 48 hrs by propidium iodide uptake assay; type: cell-based; design: concentration or dose not given beside the values
[26] = molecular target: Transient receptor potential cation channel subfamily M member 4 (Homo sapiens) (UniProt Q8TD43); assay: Inhibition of TRPM4 (unknown origin) expressed in HEK293 cells assessed as effect on agonist-induced Ca2+ changes; type: functional, cell-based
Mus musculus [27] = organism: Mus musculus; assay: Inhibition of calcium channel in mouse cortical neurons assessed as effect on Ca2+ currents; type: functional
Rattus norvegicus [28] = assay: Analgesic activity in iv dosed rat model of formalin-induced inflammatory pain assessed reduction in formalin-induced phase-2 pain flinches; type: functional, organism-based
[29] = molecular target: Transient receptor potential cation channel subfamily V member 1 (Homo sapiens) (UniProt Q8NER1); assay: Inhibition of TRPV1 (unknown origin) expressed in HEK293 cells assessed as effect on agonist-induced Ca2+ changes; type: functional, cell-based
[30] = molecular target: Transient receptor potential cation channel subfamily M member 7 (Rattus norvegicus) (UniProt Q925B3); assay: Inhibition of TRPM7 in rat H9c2 cells assessed as protection against oxygen glucose deprivation-induced cell death at 0.05 to 5 uM pre-treated for 24 hrs before OGD in presence of 1 uM nifedipine; type: cell-based
[31] = molecular target: Transient receptor potential cation channel subfamily M member 7 (Rattus norvegicus) (UniProt Q925B3); assay: Inhibition of TRPM7 in rat H9c2 cells assessed as protection against oxygen glucose deprivation-induced cell death at 0.05 to 5 uM applied during OGD; type: cell-based
Mus musculus [32] = assay: Reduction in damage to heart in mouse model of myocardial infarction at 10 to 35 ug/kg; type: functional, organism-based
Mus musculus [33] = assay: Reduction in dead cells following LAD restriction of heart in mouse model of permanent LAD coronary artery ligation at 10 to 100 ug/kg, iv administered as single dose within 15 mins of LAD occlusion by TUNEL assay; type: functional, organism-based
[34] = molecular target: Transient receptor potential cation channel subfamily M member 7 (Rattus norvegicus) (UniProt Q925B3); assay: Inhibition of TRPM7 in rat H9C2 cells exposed to oxygen glucose deprivation condition for 1 to 6 hrs assessed as reduction in TRPM7-mediated anoxic cell death in presence of 1 uM nifedipine by propidium iodide uptake assay; type: cell-based
Mus musculus [35] = organism: Mus musculus; assay: Inhibition of sodium channel in mouse cortical neurons assessed as effect on Na+ currents
[36] = molecular target: Transient receptor potential cation channel subfamily M member 7 (Mus musculus) (UniProt Q923J1); assay: Inhibition of TRPM7 in mouse primary neuronal cells exposed to oxygen glucose deprivation condition for 1 to 3 hrs assessed as reduction in TRPM7-mediated anoxic cell death dosed before oxygen glucose deprivation condition by propidium iodide uptake assay; conditions: Primary neuron
[37] = molecular target: Transient receptor potential cation channel subfamily M member 7 (Rattus norvegicus) (UniProt Q925B3); assay: Inhibition of TRPM7 in Sprague-Dawley rat retinal explants dissociated and subjected to 1 hr oxygen-glucose deprivation assessed as reduction in retinal cell death at 1 and 5 uM
[38] = molecular target: Transient receptor potential cation channel subfamily A member 1 (Homo sapiens) (UniProt O75762); assay: Inhibition of TRPA1 ((unknown origin) expressed in HEK293 cells assessed as effect on agonist-induced Ca2+ changes; type: functional, cell-based
Sequence of Transient receptor potential cation channel subfamily A member 1 (Homo sapiens) (O75762 whole entry): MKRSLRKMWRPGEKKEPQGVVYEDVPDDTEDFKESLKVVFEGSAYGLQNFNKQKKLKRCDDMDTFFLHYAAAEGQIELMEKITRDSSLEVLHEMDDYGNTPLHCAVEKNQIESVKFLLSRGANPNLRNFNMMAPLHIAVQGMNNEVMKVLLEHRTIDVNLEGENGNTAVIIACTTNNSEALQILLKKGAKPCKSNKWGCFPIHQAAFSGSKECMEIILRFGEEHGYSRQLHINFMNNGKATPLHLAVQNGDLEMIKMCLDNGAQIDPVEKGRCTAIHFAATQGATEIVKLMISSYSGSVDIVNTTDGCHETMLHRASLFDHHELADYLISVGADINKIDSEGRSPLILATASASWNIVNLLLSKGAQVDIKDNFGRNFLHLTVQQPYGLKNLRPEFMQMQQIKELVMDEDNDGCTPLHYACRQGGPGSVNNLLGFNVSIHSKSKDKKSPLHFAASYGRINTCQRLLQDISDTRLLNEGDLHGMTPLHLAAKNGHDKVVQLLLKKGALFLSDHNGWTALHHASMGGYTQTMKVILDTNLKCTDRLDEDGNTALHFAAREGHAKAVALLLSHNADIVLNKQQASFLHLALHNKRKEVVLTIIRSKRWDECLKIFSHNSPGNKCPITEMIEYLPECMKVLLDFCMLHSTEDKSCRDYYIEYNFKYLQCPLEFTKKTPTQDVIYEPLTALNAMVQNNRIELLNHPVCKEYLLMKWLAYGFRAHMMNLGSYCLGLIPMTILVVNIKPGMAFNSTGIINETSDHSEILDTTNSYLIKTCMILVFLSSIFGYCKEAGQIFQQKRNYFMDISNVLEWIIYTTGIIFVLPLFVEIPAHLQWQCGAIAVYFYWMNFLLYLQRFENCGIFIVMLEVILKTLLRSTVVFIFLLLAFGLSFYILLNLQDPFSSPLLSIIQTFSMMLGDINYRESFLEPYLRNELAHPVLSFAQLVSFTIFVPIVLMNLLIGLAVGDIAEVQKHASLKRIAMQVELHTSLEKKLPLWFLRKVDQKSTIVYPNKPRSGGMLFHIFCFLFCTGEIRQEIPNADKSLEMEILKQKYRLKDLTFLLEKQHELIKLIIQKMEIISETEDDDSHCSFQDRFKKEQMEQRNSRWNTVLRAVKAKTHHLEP

[39] = molecular target: Transient receptor potential cation channel subfamily M member 7 (Rattus norvegicus) (UniProt Q925B3); assay: Inhibition of TRPM7 in rat H9c2 cells assessed as protection against oxygen glucose deprivation-induced cell death at 0.05 to 5 uM pre-treated for 24 hrs before OGD; type: cell-based
[40] = molecular target: Transient receptor potential cation channel subfamily M member 7 (Mus musculus) (UniProt Q923J1); assay: Inhibition of TRPM7 in mouse mouse primary cortical neurons exposed to 2 hrs oxygen glucose deprivation condition assessed as reduction in TRPM7-mediated anoxic cell death measured after 20 hrs by propidium iodide uptake assay; type: cell-based; conditions: Cerebral cortex neuron

Sequence of Protein XNDC1N (Homo sapiens) (Q6ZNB5 whole entry): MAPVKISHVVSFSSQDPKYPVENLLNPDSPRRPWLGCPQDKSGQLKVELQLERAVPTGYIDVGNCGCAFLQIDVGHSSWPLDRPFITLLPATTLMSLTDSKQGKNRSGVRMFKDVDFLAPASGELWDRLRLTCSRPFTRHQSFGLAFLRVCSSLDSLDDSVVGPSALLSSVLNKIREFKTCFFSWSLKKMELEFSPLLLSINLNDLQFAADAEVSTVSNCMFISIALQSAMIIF

With `Cc1c(Cc2ccc(Cl)c(Cl)c2)c(=O)oc2cc(O)ccc12` the inhibition [1] was “inactive”, the inhibition [2] was “inactive” and the inhibition [3] was “Active”. For the same compound, the inhibition [4] was “Active”, the inhibition [5] was “inactive” and the inhibition [6] was “Active”. The inhibition (Mus musculus [7]) was 20%, the Activity (Rattus norvegicus [8]) was “Active” and the inhibition [9] was “inactive”. For the same compound, the Activity (Rattus norvegicus [10]) was “inactive”, the inhibition [11] was “Active” and the inhibition [12] was “inactive”. For the same compound, the inhibition at 10 µM [13] was greater than 20%, the inhibition [14] was “Active” and the Activity (Mus musculus [15]) was “Active”. The inhibition [16] was “inactive”, the Activity (Mus musculus [17]) was “Non-toxic” and the Activity [18] was 66%. For the same compound, the inhibition [19] was “Active”, the inhibition [20] was “Active” and the inhibition [21] was “Active”. The inhibition [22] was “Active”, the inhibition [23] was “Active” and the inhibition [24] was “Active”. The inhibition [25] was “Active”, the inhibition [26] was “inactive” and the inhibition (Mus musculus [27]) was “inactive”. The Activity (Rattus norvegicus [28]) was “Active”, the inhibition [29] was “inactive” and the inhibition [30] was “Active”. The inhibition [31] was “Active”, the Activity (Mus musculus [32]) was “Active” and the Activity (Mus musculus [33]) was “Active”. The inhibition [34] was “Active”, the inhibition (Mus musculus [35]) was “inactive” and the inhibition [36] was “Active”. The inhibition [37] was “Active”, the inhibition [38] was “inactive” and the inhibition [39] was “Active”. The inhibition [40] was “Active”.
